Data on two molecules can be found in BigSolDB 2.1.

The solubility (mole fraction) is the moles of solute divided by all moles in the saturated solution. Take `O=C1c2ccccc2C(=O)c2ccccc21`: the solubility (mole fraction) is, setting by setting: (in 2-butanone, 298 K) 0.00054; (in 2-butanone, 303 K) 0.00062; (in 2-butanone, 308 K) 0.00075; (in 2-butanone, 313 K) 0.00087; (in 2-butanone, 318 K) 0.001; (in acetonitrile, 298 K) 0.00022. The solubility (mole fraction) was 0.00026 (in acetonitrile, 303 K); 0.00032 (in acetonitrile, 308 K); 0.00039 (in acetonitrile, 313 K); 0.00048 (in acetonitrile, 318 K); 8e-05 (in isopropanol, 298 K); 0.0001 (in isopropanol, 303 K). The solubility (mole fraction) turned out to be 0.00012 (in isopropanol, 308 K); 0.00015 (in isopropanol, 313 K); 0.00018 (in isopropanol, 318 K).
Turning to `c1ccc2cc3ccccc3cc2c1`, the solubility (mole fraction) runs as follows: (in 2-butanone, 298 K) 0.00477; (in 2-butanone, 303 K) 0.00591; (in 2-butanone, 308 K) 0.00712; (in 2-butanone, 313 K) 0.0085; (in 2-butanone, 318 K) 0.0134; (in acetonitrile, 298 K) 0.00066. In addition, the solubility (mole fraction) (in acetonitrile, 303 K) was determined as 0.00093; the solubility (mole fraction) (in acetonitrile, 308 K) was 0.00135; the solubility (mole fraction) (in acetonitrile, 313 K) was found to be 0.00196; the solubility (mole fraction) (in acetonitrile, 318 K) was found to be 0.0027; the solubility (mole fraction) (in isopropanol, 298 K) came out at 0.00034; the solubility (mole fraction) (in isopropanol, 303 K) is 0.00044. For the same molecule, the solubility (mole fraction) (in isopropanol, 308 K) came out at 0.00061; the solubility (mole fraction) (in isopropanol, 313 K) came to 0.00081; the solubility (mole fraction) (in isopropanol, 318 K) was 0.00111.
